Assay results from ChEMBL document CHEMBL1201862, “PubChem BioAssay data set” (2004).
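Where inhibition never reached the appropriate level, the endpoint shown equals the highest concentration tested. Otherwise, values were interpolated linearly from a five-concentration, 48-hour dose response in 96-well plates. GI50 is the concentration that inhibits growth by half.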 Activity calls are given as the source filed them. No stated cut-off is given here; in the data, active = GI50 up to about 1.1 µM and inactive = higher.

Assays:
Experiment in all cases: inhibition of tumour cell growth, NCI panel, 48 h
[1] = tested on: DLD-1
[2] = tested on: M19-MEL
[3] = tested on: SNB-78
[4] = tested on: DMS-273
[5] = tested on: KM-20L2
[6] = tested on: LXFL 529
[7] = tested on: HOP-18
[8] = tested on: RXF 631
[9] = tested on: XF498

In the case of C#CCN(Cc1ccc2nc(-c3ccccc3)c(Cl)nc2c1)c1cc(OC)c(OC)c(OC)c1, the GI50 [1] was > 100 µM (inactive), the GI50 [2] was > 100 µM (inactive) and the GI50 [3] was > 100 µM (inactive). The GI50 [4] was 99.5 µM (inactive), the GI50 [5] was > 100 µM (inactive) and the GI50 [6] was > 100 µM (inactive). The GI50 [7] was > 100 µM (inactive) and the GI50 [8] was > 100 µM (inactive).

For Nc1nc(Cl)cc(NCCCCCCCCCCNc2cc(Cl)nc(N)n2)n1, the GI50 [1] was 6.5 µM (inactive), the GI50 [2] was 7.4 µM (inactive) and the GI50 [3] was 0.0638 µM (active). For the same compound, the GI50 [4] was 4.35 µM (inactive), the GI50 [5] was 5.21 µM (inactive) and the GI50 [6] was 1.27 µM (inactive). The GI50 [7] was 58.3 µM (inactive), the GI50 [9] was 1.25 µM (inactive) and the GI50 [8] was 5.3 µM (inactive).

In the case of COC(=O)C(C)Oc1ccc(O)cc1 (centres undefined), the GI50 [1] was > 100 µM (inactive), the GI50 [2] was > 100 µM (inactive) and the GI50 [3] was > 100 µM (inactive). The GI50 [4] was > 100 µM (inactive), the GI50 [5] was > 100 µM (inactive) and the GI50 [6] was > 100 µM (inactive). For the same compound, the GI50 [7] was > 100 µM (inactive) and the GI50 [8] was > 100 µM (inactive).

For C1CN2N3CCCC23C1 (centres undefined), the GI50 [1] was > 100 µM (inactive), the GI50 [2] was > 100 µM (inactive) and the GI50 [3] was > 100 µM (inactive). The GI50 [4] was > 100 µM (inactive), the GI50 [5] was > 100 µM (inactive) and the GI50 [6] was > 100 µM (inactive). The GI50 [7] was > 100 µM (inactive) and the GI50 [9] was > 100 µM (inactive).

With N#Cc1cccnc1Cl the GI50 [1] was > 100 µM (inactive), the GI50 [2] was > 100 µM (inactive) and the GI50 [3] was > 83.4 µM (inactive). The GI50 [4] was > 100 µM (inactive), the GI50 [5] was > 100 µM (inactive) and the GI50 [6] was > 100 µM (inactive). For the same compound, the GI50 [7] was > 100 µM (inactive), the GI50 [9] was > 100 µM (inactive) and the GI50 [8] was > 100 µM (inactive).

O=C1Cc2ccccc2N1/N=C\c1ccc(O)cc1 was tested, and the GI50 [2] was > 100 µM (inactive), the GI50 [3] was > 100 µM (inactive) and the GI50 [4] was > 100 µM (inactive). The GI50 [5] was > 100 µM (inactive), the GI50 [7] was > 100 µM (inactive) and the GI50 [9] was > 100 µM (inactive). For the same compound, the GI50 [8] was > 100 µM (inactive).

O=C(/C=C/c1ccccc1O)c1ccc([N+](=O)[O-])cc1 was tested, and the GI50 [1] was 12.9 µM (inactive), the GI50 [2] was 18.4 µM (inactive) and the GI50 [3] was 20.9 µM (inactive). For the same compound, the GI50 [4] was 15.2 µM (inactive), the GI50 [5] was 18.8 µM (inactive) and the GI50 [6] was 13.4 µM (inactive). The GI50 [7] was 30.1 µM (inactive), the GI50 [9] was 16.9 µM (inactive) and the GI50 [8] was 18.7 µM (inactive).

COc1cc(/C=C(\NC(=O)c2ccccc2)c2nc3cncnc3[nH]2)cc(OC)c1OC was tested, and the GI50 [1] was > 100 µM (inactive), the GI50 [2] was > 100 µM (inactive) and the GI50 [3] was > 100 µM (inactive). For the same compound, the GI50 [4] was > 100 µM (inactive), the GI50 [5] was > 100 µM (inactive) and the GI50 [6] was > 100 µM (inactive). The GI50 [9] was > 100 µM (inactive) and the GI50 [8] was > 100 µM (inactive).

With Cc1ccc2nc(NC(=O)C(=O)C(C#N)c3ccc(Cl)cc3)sc2c1 (centres undefined) the GI50 [2] was > 50 µM (inactive), the GI50 [3] was > 50 µM (inactive) and the GI50 [4] was > 50 µM (inactive). For the same compound, the GI50 [5] was > 50 µM (inactive), the GI50 [6] was > 50 µM (inactive) and the GI50 [7] was 0.265 µM (active). The GI50 [9] was > 50 µM (inactive).

CCCCCCCCCCC(O)CCCCCCC(=O)O (centres undefined) was tested, and the GI50 [1] was 19.3 µM (inactive), the GI50 [2] was 35.6 µM (inactive) and the GI50 [3] was > 100 µM (inactive). The GI50 [4] was 22.4 µM (inactive), the GI50 [6] was 23.4 µM (inactive) and the GI50 [7] was 27.9 µM (inactive). For the same compound, the GI50 [9] was 29.8 µM (inactive) and the GI50 [8] was 19.1 µM (inactive).

For O=C(OCc1ccccc1)N1N=NC2C3CC(OCc4ccccc4)(OCc4ccccc4)C(O3)C21 (centres undefined), the GI50 [1] was 16.9 µM (inactive), the GI50 [2] was 24.4 µM (inactive) and the GI50 [3] was 43.7 µM (inactive). The GI50 [4] was 15.5 µM (inactive), the GI50 [5] was 40.7 µM (inactive) and the GI50 [6] was 18.8 µM (inactive). The GI50 [7] was 20.6 µM (inactive), the GI50 [9] was 22.7 µM (inactive) and the GI50 [8] was 46 µM (inactive).

In the case of Cc1cc(NS(=O)(=O)c2ccc(Nc3c4ccccc4nc4c(C(=O)N5CCN(CCOS(C)(=O)=O)CC5)cccc34)cc2)no1, the GI50 [1] was > 100 µM (inactive), the GI50 [2] was > 100 µM (inactive) and the GI50 [3] was > 100 µM (inactive). For the same compound, the GI50 [4] was > 100 µM (inactive), the GI50 [5] was > 100 µM (inactive) and the GI50 [9] was > 100 µM (inactive).

CNc1nc(N)cc(O)n1 was tested, and the GI50 [1] was > 100 µM (inactive), the GI50 [2] was > 100 µM (inactive) and the GI50 [3] was > 100 µM (inactive). For the same compound, the GI50 [4] was > 100 µM (inactive), the GI50 [5] was > 100 µM (inactive) and the GI50 [6] was > 100 µM (inactive).

COc1cc([C@@H]2c3cc4c(cc3[C@@H](OC(=O)c3ccccc3)C3COC(=O)[C@@H]32)OCO4)cc(OC)c1O (some centres undefined) was tested, and the GI50 [2] was < 0.01 µM (active), the GI50 [4] was < 0.01 µM (active) and the GI50 [5] was 0.0128 µM (active). The GI50 [6] was < 0.01 µM (active), the GI50 [7] was > 100 µM (inactive) and the GI50 [8] was < 0.01 µM (active).

In the case of CC(C)Cc1ccc(C(C)/C=C2\CCC(CN(C)C)C2=O)cc1 (centres undefined), the GI50 [1] was 10.7 µM (inactive), the GI50 [2] was 17.6 µM (inactive) and the GI50 [3] was 17.5 µM (inactive). The GI50 [5] was 24.3 µM (inactive), the GI50 [6] was 9.35 µM (inactive) and the GI50 [7] was 17.6 µM (inactive). For the same compound, the GI50 [9] was 20 µM (inactive).

With O=C(CCc1ccccc1)On1nnc2ccccc2c1=O the GI50 [1] was > 100 µM (inactive), the GI50 [2] was > 100 µM (inactive) and the GI50 [3] was > 100 µM (inactive). The GI50 [4] was > 100 µM (inactive), the GI50 [5] was > 100 µM (inactive) and the GI50 [6] was > 100 µM (inactive).

For CC(=O)OCC(=O)[C@@]1(O)CC[C@H]2[C@@H]3C[C@H](C)C4=CC(=O)C=C[C@]4(C)[C@@]3(F)[C@@H](O)C[C@@]21C, the GI50 [1] was > 100 µM (inactive), the GI50 [2] was > 100 µM (inactive) and the GI50 [3] was > 100 µM (inactive). For the same compound, the GI50 [4] was > 100 µM (inactive), the GI50 [5] was > 100 µM (inactive) and the GI50 [9] was > 100 µM (inactive). The GI50 [8] was > 100 µM (inactive).

With CCOC(=O)C(=O)C=P(c1ccccc1)(c1ccccc1)c1ccccc1 the GI50 [1] was > 100 µM (inactive), the GI50 [2] was > 100 µM (inactive) and the GI50 [3] was > 100 µM (inactive). The GI50 [4] was > 100 µM (inactive), the GI50 [5] was > 100 µM (inactive) and the GI50 [6] was > 100 µM (inactive). For the same compound, the GI50 [7] was > 100 µM (inactive) and the GI50 [8] was > 100 µM (inactive).

C/C(=N\NS(=O)(=O)c1ccc(C)cc1)c1ccc[n+]([O-])n1 was tested, and the GI50 [1] was 50.1 µM (inactive), the GI50 [2] was > 100 µM (inactive) and the GI50 [4] was > 100 µM (inactive). The GI50 [5] was > 100 µM (inactive), the GI50 [6] was 45.2 µM (inactive) and the GI50 [7] was > 100 µM (inactive). The GI50 [9] was > 100 µM (inactive).

For Cc1c(C(=O)/C=C/c2cccc3ccccc23)[n+]([O-])c2ccccc2[n+]1[O-], the GI50 [1] was 10.6 µM (inactive), the GI50 [2] was 11.9 µM (inactive) and the GI50 [3] was 6.84 µM (inactive). The GI50 [4] was 11.7 µM (inactive), the GI50 [5] was 14.6 µM (inactive) and the GI50 [6] was 8.02 µM (inactive). For the same compound, the GI50 [7] was 14.4 µM (inactive) and the GI50 [8] was 18.1 µM (inactive).

With COC1C(OC(=O)/C=C/C=C/C=C/C=C\C(=O)O)CCC2(CO2)C1C1(C)OC1CC=C(C)C (centres undefined) the GI50 [1] was > 100 µM (inactive), the GI50 [2] was > 100 µM (inactive) and the GI50 [4] was > 100 µM (inactive). For the same compound, the GI50 [5] was > 100 µM (inactive), the GI50 [6] was > 100 µM (inactive) and the GI50 [9] was > 100 µM (inactive). The GI50 [8] was > 100 µM (inactive).

For O=C1C2c3[nH]c4ccccc4c3C3CCCC3C2C(=O)N1c1ccccc1 (centres undefined), the GI50 [1] was > 100 µM (inactive), the GI50 [2] was > 100 µM (inactive) and the GI50 [3] was > 100 µM (inactive). For the same compound, the GI50 [4] was > 100 µM (inactive), the GI50 [6] was > 100 µM (inactive) and the GI50 [9] was 12 µM (inactive).

With O=[PH](O)c1ccccn1 the GI50 [1] was > 100 µM (inactive), the GI50 [2] was > 100 µM (inactive) and the GI50 [3] was > 100 µM (inactive). The GI50 [4] was > 100 µM (inactive), the GI50 [5] was > 100 µM (inactive) and the GI50 [6] was > 100 µM (inactive). For the same compound, the GI50 [9] was > 100 µM (inactive).

CCOc1ccc(-c2oc(/C=N/NS(=O)(=O)c3ccc(C)cc3)c([N+](=O)[O-])c2-c2ccc(OCC)cc2)cc1 was tested, and the GI50 [1] was 4.98 µM (inactive), the GI50 [2] was 3.72 µM (inactive) and the GI50 [3] was 9.73 µM (inactive). The GI50 [4] was 8.41 µM (inactive), the GI50 [5] was 11.2 µM (inactive) and the GI50 [6] was 9.93 µM (inactive).

For C[C@H](CCC1SC1(C)C)C1CCC2(C)C3=C(CC[C@]12C)[C@@]1(C)CC[C@H](O)C(C)(C)C1CC3 (some centres undefined), the GI50 [1] was > 100 µM (inactive), the GI50 [4] was > 100 µM (inactive) and the GI50 [5] was > 100 µM (inactive). The GI50 [6] was > 100 µM (inactive), the GI50 [7] was > 100 µM (inactive) and the GI50 [9] was > 100 µM (inactive).

For C[C@@]1(Cc2ccccc2)C(=O)N2[C@@H](CO)C(c3ccccc3)O[C@]2(C)c2ccccc21 (some centres undefined), the GI50 [1] was > 100 µM (inactive), the GI50 [2] was > 100 µM (inactive) and the GI50 [3] was > 100 µM (inactive). For the same compound, the GI50 [4] was > 100 µM (inactive), the GI50 [5] was > 100 µM (inactive) and the GI50 [6] was > 100 µM (inactive).
